Data on one compound can be found in patent publication US20230287416A1, “COMBINATORY TREATMENT OF SMA WITH SARNA AND MRNA MODULATORS” (RACTIGEN THERAPEUTICS, priority 2020, published 2023).

This assay concerns SMN2 mRNA. The experiment in a line: RT-qPCR of SMN2FL and SMN2 Δ7 mRNA in brain, liver and spinal cord of SMA type III mice. The assay is classed as in vivo, mouse. The method, then: The combinatory effect of LNP-R6-04M1 with LNP-ASO-10-27 or with Risdiplam were in evaluated in vivo, in SMA type IU mice. Neonatal mice were divided into 10 treatment groups: • Treatment Group 1: administration of LNP-R6-04M1 via ICV injection (injected twice on P1 and P3 respectively, each with 10 ug of LNP-R6-04M1); • Treatment Group 2: administration of LNP-ASO-10-27 via ICV injection (injected twice on P1 and P3 respectively, each with 10 ug of LNP-ASO-10-27); • Treatment Group 3: administration of Risdiplam via IP injection on P1 at a concentration of 0.3 mg/kg; • Treatment Group 4: administration of Risdiplam via IP injection on P1 at a concentration of 1 mg/kg; • Treatment Group 5: administration of Risdiplam via IP injection on P1 at a concentration of 3 mg/kg; • Treatment Group 6: combinatory treatment via administration of LNP-R6-04M1 and LNP-ASO-10-27. LNP-R6-04M1 was administered via ICV injection on P1 (10 ug), while LNP-ASO-10-27 was administered via ICV injection on P3 (10 ug); • Treatment Group 7: combinatory treatment via administration of LNP-ASO-10-27 and LNP-R6-04M1. LNP-ASO-10-27 was administered via ICV injection on P1 (10 ug), while LNP-R6-04M1 was administered via ICV injection on P3 (10 ug); • Treatment Group 8: combinatory treatment of LNP-R6-04M1 and Risdiplam. LNP-R6-04M1 was injected on P1 (10 ug) via ICV injection, and Risdiplam was injected via IP injection on P3 at a concentration of 0.3 mg/kg; • Treatment Group 9: combinatory treatment of LNP-R6-04M1 and Risdiplam. LNP-R6-04M1 was injected on P1 (10 ug) via ICV injection, and Risdiplam was injected via IP injection on P3 at a concentration of 1 mg/kg;
The SMA type LII mice were treated saline twice on P1 (5 μL) and P3(5 μL) via subcutaneous (SC) injection. P1 and P3 means postnatal day 1 and day3;
Treatment Group 10: treatment of mice with saline SMN2FL and SMN2 Δ7 mRNA levels were quantified by RT-qPCR in tissues of the brain, liver and spinal cord.
For RNA isolation from cultured cells, total cellular RNA was isolated from treated cells using an RNeasy Plus Mini kit (Qiagen, Hilden, Germany) according to its manual. To isolated RNA from animal tissues, tissues were harvested and stored at RNA later (AM7021, Thermo Fisher). Total RNA was then isolated using MagPure Total RNA Micro LQ kit (Magen, R6621, China) by auto-pure96 machine (ALLSHENG, China). The resultant RNA (1 μg) was reverse transcribed into cDNA by using a PrimeScript RT kit containing gDNA Eraser (Takara, Shlga, Japan). The resultant cDNA was amplified in an ABI 7500 Fast Real-time PCR System (Applied Biosystems; Foster City, Calif.) using SYBR Premix Ex Taq 11 (Takara, Shlga, Japan) reagents and primers which specifically amplified full-length (SMN2FL) or A7 SMN2 mRNA (SMN2 Δ7) (FIG. 1). The reaction conditions were: 95° C. for 3 seconds (1 cycle) and 60° C. for 30 seconds (40 cycles). Amplification of TBP gene served as an internal control.
All animal procedures were conducted by certified laboratory personnel using protocols consistent with local and state regulations and approved by the Institutional Animal Care and Use Committee. SMA-like mice created by homozygous knock-out of mouse Smn exon 7 with transgene of human SMN2 (Smn−/−SMN2+/−) as previously described Hsieh-Li et al. (Hsieh-Li, H. M., et al. A mouse model for spinal muscular atrophy. Nature Genet (2000) were obtained from Jackson Laboratories. Tail snips were gathered at postnatal day 0 (P0), and each pup was identified by paw tattooing and genotyped by PCR analysis using a set of 3 specific primers: S1, 5′-[…]-3′, and S2, 5′-[…]-3′ (1,150 bp band for wild type alleles) and S1 and H1, 5′-[…]-3′ (950 bp band for mutant alleles). The PCR products were detected by 1% agarose gel. Severe SMA mice (Smn^−/−, SMN^+/0) were generated. Littermates heterozygous for mouse Smn (Smn1^+/−, SMN2^+/−) were used as controls. […]
In general terms: Real-time PCR tracks product formation cycle by cycle.

Where [1] appears, read: brain, IP on P1, 0.3 mg/kg (Treatment Group 3).
[2] abbreviates: brain, IP on P1, 1 mg/kg (Treatment Group 4).
[3] abbreviates: brain, IP on P1, 3 mg/kg (Treatment Group 5).
[4] abbreviates: liver, IP on P1, 0.3 mg/kg (Treatment Group 3).
Setting [5] is: liver, IP on P1, 1 mg/kg (Treatment Group 4).
The mark [6] stands for this setting: liver, IP on P1, 3 mg/kg (Treatment Group 5).

On to `Cc1cn2nc(-c3cc(=O)n4cc(N5CCNC6(CC6)C5)ccc4n3)cc(C)c2n1` [Risdiplam], for which the “SMN2FL mRNA expression, fold relative to control” value worked out at 1.1 fold under setting [1]; 1.3 fold under setting [2]; 1.0 fold under setting [3]; 1.1 fold under setting [4]; 1.5 fold under setting [5]; 1.0 fold under setting [6]. For the same compound, the “SMN2 Δ7 mRNA expression, fold relative to control” value runs as follows: under setting [1], 1.0 fold; under setting [2], 1.0 fold; under setting [3], 1.0 fold; under setting [4], 1.0 fold; under setting [5], 0.9 fold; under setting [6], 1.0 fold.
